Measurements taken from patent US4548927A, “Method and agents for raising animal tolerance to oxidant stress-inducing antibiotics” (priority 1983, dated 1985).

Legend:
[1] = system: antibiotic-induced damage; conditions: tumor cells and normal host tissues; cited from earlier work
[2] = system: antibiotic-induced free radical-mediated damage; conditions: humans; cited from earlier work
heart = test: Cardiac evaluation / heart damage score and autopsy, Study No. 1 (Example II); format: in vivo, Balb/c female mice
Source text: A pathologist examined the heart of each mouse without prior knowledge of whether the animal received doxorubicin or placebo and methylene blue ur placebo. Cages were inspected twice daily for dead animals and autopsies were done immediately. The animals' hearts were washed in normal saline, fixed in formalin and embedded in glycol methacrylate. One-micron sections were inspected by light microscopy. The condition of the hearts was scored as follows: normal-1; slightly damaged-2; moderately damaged-3; severely damaged-4. Five specific categories or criteria were utilized for this evaluation: vacuolization; myofibrillar and nuclear degeneration; necrosis; interstitial edema; and interstitial inflammation. The numerical scores were averaged for each heart to yield an overall tabulation of damage.
In the course of this study, the cages were inspected twice daily for dead animals, and within twelve hours of death an autopsy was performed upon each animal that died. The heart was excised, inspected, washed in normal saline and fixed in 10% formalin. Upon terminatiun of this study, animals which had received no doxorubicin were killed by cervical dislocation and their hearts were handled in accordance with the procedures outlined earlier above.
Nonetheless, this difference in mean value was not statistically significant at the 5% level (f=2.3, p<0.1 and>0.05).

doxorubicin lethality [3] = test: Effects of methylene blue on doxorubicin toxicity, survival, Study No. 2 (Example II)
Method: (§1) Mice were obtained from Laboratory Supply Company, Inc., Indianapolis, Indiana. […] The light was maintained between 6:00 in the morning and 6:00 at night, and food and water were freely available. The rooms the mice were maintained in were sound insulated and kept at a constant relative humidity with a temperature ranging between 23° and 25° C. All animals were kept undisturbed except for a weekly cage cleaning, for 21 to 28 days after receipt from the animal supplier and prior to the experimentation. Four mice of the same sex were kept in each cage because of the well-known effects of isolation upon various biologic parameters. […] (See, Levi, F., Halberg, F., Haus, E., Sanchez, S., Sothern, R. B., Halberg, E., Hrushesky, W., Brown, H., Scheving, L. E., and Kennedy, B. J., "Synethetic Adrenocorticotropin for Optimizing Murine Circadian Chronotolerance for Adriamycin", CHRONOBIOLOGIA. 7(#2):227-244 (1980)).
(§2) The anthracycline antibiotic doxorubicin (NDC 38242-874-10, obtained from Adria Laboratories, Inc., Columbus, Ohio) was prepared to a concentration of 2 mg/ml in saline immediately prior to administration to the mice. Administration was by injection either intravenously through a transilluminated tail vein or intraperitoneally. The doxorubicin was administered in an amount per body weight of mouse of 18 mg/kg.
T-tests were used when comparing variances between two groups. […]

doxorubicin lethality [4] = test: Effect of lesser doses of methylene blue on doxorubicin toxicity, survival (Example III)
Method: as §1, §2
T-tests were used when comparing variances between two groups. When the variance of means were compared among several groups, analysis of variance was used. Multivariate mean analysis was used when comparing groups of individuals sharing common characteristics which were anticipated might possibly affect the outcome of the statistical analysis. […] Chi-square analyses were used to compare survival percentages between and among various treatment groups at appropriate truncation points. Gehan-Wilcoxon Life Table Analyses were used to complement multivariate survival analyses in order to properly weight long-term survivors.

L1210 leukemia cells = test: Effect of methylene blue on anti-neoplastic activity of doxorubicin (Example IV); format: in vivo, CD2 F1 female mice
Method: A strain of leukemia identified as L1210 was obtained from Arthur Bogden of the E. G. Mason Research Institute Animal and Human Tumor Bank, Worcester, Massachusetts. The tumor was kept in passage in DBA female mice. The tumor used for the below described experiments was between its tenth and twentieth in vivo passage. […] The tumor grows in ascites, which is initially clear and proceeds, within the 24 to 36 hours prior to death, to become hemorrhagic.
Accordingly, it was determined to assess tne anti-tumor efficacy of doxorubicin administered with and without methylene blue. For these studies, 120, 12 to 14 week old female CD2 F1 mice were each given 70,000 live L1210 leukemia cells 4 hours after the lights were turned on in the cages. The mice were then randomly assigned to one of seven treatment groups.

[5] = Doxorubicin lethality, CD2 F1 mice; format: in vivo
[6] = Doxorubicin lethality, Balb/c mice; set-up: species or system Balb/c female mice; conditions: mouse, in vivo
cellular proteins = test: Examination of tissues after doxorubicin administration; conditions: tissues subsequent to doxorubicin administration
Source text: The present inventor has likewise reasoned that the reduction of the oxidant stress-inducing antibiotics may be promoted by interaction with either NADH or NADPH, or their reducing proteins. […] It is therefore possible that the oxidation of NADH or NADPH may occur indirectly by the interaction of the antibiotic with these reducing proteins acting as mediators, either in addition to or in place of a direct interaction between the antibiotic and NADH or NADPH alone.

[7] = cited from earlier work
microsomal systems = conditions: from NADPH and NADH; cited from earlier work
[8] = system: hepatic microsomes and heart sarcosomes; conditions: cited from earlier work
[9] = system: cardiac submitochondrial particles; conditions: cited from earlier work
[10] = Effects of methylene blue on anthracycline toxicity, survival, Study No. 1 (Example II); conditions: mouse, in vivo, 18 mg/kg
doxorubicin lethality [11] = test: as above
hepatic GSH = test: Effect of methylene blue on hepatic GSH levels (Example I); format: in vivo, CD2 F1 female mice; conditions: 25 mg methylene blue iv; 4 h; 33 week old; n=9; saline 15.03±4.33; f=6.03, p<0.03
Method: Total glutathione, oxidized and reduced (GSSG and GSH respectively), was determined by a modification of the method of Tietze (Tietze, F., ANAL. BIOCHE., 27:502-522 (1969). GSH was determined by the method of Prins and Loos (Prins, H. K. and Loos, J. A., "In Biochemical Methods in Red Cell Genetics", J. Yunis, ed., Academic Press, New York, (1969)).
Because maintenance of GSH is an NADPH-dependent process, decrements in intracellular NADPH were postulated to lead to a decrease in GSH concentration. […] Hepatic GSH was similarly observed and noted to behave in corresponding fashion.

in vivo = conditions: mouse, 550 mg/kg
[12] = previous studies in mice, dogs and humans; cited from earlier work

Q: For `CC(=O)N[C@@H](CS)C(=O)O` [N-acetyl cysteine], which “protection from antibiotic-induced damage” value [1] is on record?
A: mixed results

Q: For `Cc1c(C)c2c(c(C)c1O)CCC(C)(CCCC(C)CCCC(C)CCCC(C)C)O2` (stereo not drawn) [Vitamin E, α-tocopherol], which “effect on antibiotic-induced damage at tolerable doses” value [2] is on record?
A: failed to work at tolerable doses in humans

Q: For `COc1cccc2c1C(=O)c1c(O)c3c(c(O)c1C2=O)C[C@@](O)(C(=O)CO)C[C@@H]3O[C@H]1C[C@H](N)[C@H](O)[C@H](C)O1` [doxorubicin, 14-hydroxydaunomycin], which “visual appearance of hearts” value (heart; animals receiving doxorubicin) is on record?
A: often pale and had a patchy fibrotic appearance

Q: What about the “most prominent heart finding” value (heart; animals which did not receive methylene blue) of the same molecule?
A: degeneration of myocytes

Q: And the “pleural fluid, pulmonary consolidation and ascites” value (heart; autopsy, animals which had received doxorubicin)?
A: often present

Q: What about the “heart damage score, without methylene blue” value (heart; doxorubicin 18 mg/kg, no methylene blue, normal score=1.0, f=2.3, p<0.1 and >0.05) of the same molecule?
A: 2.8±1.3

Q: And the “mean survival time, without methylene blue” value (doxorubicin lethality [3]; doxorubicin 18 mg/kg iv plus placebo, truncated at 130 days, n=7)?
A: 85 ± 7 days

Q: And the “average survival, doxorubicin intraperitoneally” value (doxorubicin lethality [4]; doxorubicin 18 mg/kg ip, f=27.4, p<0.001)?
A: 6.2 ± 0.8 days

Q: And the “average survival, saline placebo” value (doxorubicin lethality [4]; doxorubicin 18 mg/kg iv or ip plus saline placebo, f=10.8, p<0.001)?
A: 7.2 ± 0.6 days

Q: And the mortality (doxorubicin lethality [4]; doxorubicin 18 mg/kg iv or ip, with methylene blue or saline)?
A: All of the mice succumbed to doxorubicin

Q: And the “average survival, doxorubicin intravenously” value (doxorubicin lethality [4]; doxorubicin 18 mg/kg iv, f=27.4, p<0.001)?
A: 11.2 ± 0.6 days

Q: What about the “survival, doxorubicin and placebo” value (L1210 leukemia cells; 70,000 L1210 cells, doxorubicin and placebo) of the same molecule?
A: 14.4 ± 1.2 days

Q: What about the increased life span (L1210 leukemia cells; single doxorubicin treatment 3 days after tumor implantation, F=124, p<0.001) of the same molecule?
A: 160%

Q: What about the “survival of CD2 F1 relative to Balb/c mice” value ([5]; 18 mg/kg iv, compared with Balb/c mice) of the same molecule?
A: more than 3 times longer

Q: What about the mortality at 720 h ([5]; mouse, in vivo, 18 mg/kg ip, 30 days, CD2 F1, read-out: mortality within 30 days, intraperitoneal) of the same molecule?
A: > 80%

Q: What about the mortality ([5]; mouse, in vivo, 18 mg/kg iv, CD2 F1) of the same molecule?
A: ~100%

Q: What about the mortality at 720 h ([6]; 18 mg/kg ip, 30 days, Balb/c female, read-out: mortality within 30 days, intraperitoneal) of the same molecule?
A: 100%

Q: What about the mortality ([6]; 18 mg/kg iv, Balb/c) of the same molecule?
A: ~100%

Q: What about the “complexation with cellular proteins” value (cellular proteins) of the same molecule?
A: some complexation

Q: And the solubility [7]?
A: soluble in water, methanol and other aqueous alcohols but is practically insoluble in acetone, benzene, chloroform, ethyl ether and petroleum ether

Q: What about the free radical production (microsomal systems) of the same molecule?
A: causes the production of free radicals

Q: What about the oxygen consumption [8] of the same molecule?
A: increases oxygen consumption

Q: What about the superoxide formation [9] of the same molecule?
A: stimulates superoxide formation

Q: What about the mortality at 360 h [10] of the same molecule?
A: > 50%

Q: And the “effect of route of administration of doxorubicin” value (doxorubicin lethality [11]; doxorubicin 18 mg/kg iv vs ip, two-way analysis of variance)?
A: no significant effect of the particular route of administration

Q: For `CN(C)c1ccc2nc3ccc(=[N+](C)C)cc-3sc2c1` [methylene blue, methylthionine chloride], which “mean hepatic GSH levels” value (hepatic GSH) is on record?
A: 9.30±5.50 μMol/g protein

Q: And the “pleural fluid, pulmonary consolidation and ascites” value (heart; animals killed after saline and/or methylene blue only)?
A: never

Q: And the “visual appearance of hearts” value (heart; animals not receiving doxorubicin (saline and/or methylene blue))?
A: appeared visually normal

Q: And the “heart damage score, with methylene blue” value (heart; doxorubicin 18 mg/kg plus methylene blue iv, normal score=1.0, f=2.3, p<0.1 and >0.05 (not significant))?
A: 1.8±0.9

Q: What about the “average survival, with methylene blue” value (doxorubicin lethality [3]; doxorubicin 18 mg/kg iv plus methylene blue 4 x 25 mg/kg (iv, then ip 1, 3, 6 h), 130 days, n=8, t=4.0, p<0.001) of the same molecule?
A: 113 ± 0.5 days

Q: And the “average survival, with methylene blue” value (doxorubicin lethality [4]; doxorubicin 18 mg/kg iv or ip plus methylene blue 25 mg/kg iv, f=10.8, p<0.001)?
A: 10.3 ± 1 days

Q: What about the “survival, doxorubicin followed by methylene blue” value (L1210 leukemia cells; 70,000 L1210 cells, doxorubicin followed by methylene blue 25 mg/kg iv 30 min after, then sc 1.5-48 h) of the same molecule?
A: 14.7 ± 0.5 days

Q: What about the mortality (in vivo) of the same molecule?
A: 50%

Q: And the “tolerability at 25 mg/kg” value [12]?
A: well tolerated

Q: And the “survival, methylene blue without doxorubicin” value (doxorubicin lethality [11]; saline and methylene blue iv, no doxorubicin, study follow-up period)?
A: lived throughout the study follow-up period
